Test results taken from patent US9109045B2, “Mass producing growth factor using adipose derived adult stem cells” (PROSTEMICS CO., LTD., priority 2006, dated 2015).
Where “and” joins values, the source holds several entries; their conditions need not be identical. Identical values can stand only once. Like-named read-outs stand apart in the source and are kept apart here.

How the values were obtained:
keratinocytes = assay: Defensive effect against exposure of keratinocytes to UV light (cell viability); assay type: cell-based; details: UV light 40 W double lamp 8 minutes, viability after 24 hours, 2.5 cc medium in 5 cc KGM or 2 uM retinol
Protocol: The defensive effect of growth factors secreted from adipose-derived stem cells against the exposure of keratinocytes UV light was tested in the following manner. Keratinocytes were dispensed into a 6-well plate at a suitable cell concentration in KGM (karatinocyte growth medium; Clonetics.) and incubated in a 5% carbon dioxide incubator at 37° C. To the medium, 2.5 cc of 100% ADSC 3-passage 3-day cultured medium was added to adjust the KGM to 5 cc. Also, 2 uM retinol was added to 5 cc of KGM. Also, as a negative control group, 5 cc of KGM alone was administered to keratinocytes. Each of the test samples was stabilized for 4 hours, such that the raw materials were sufficiently dispersed. After that, each of the test samples was irradiated with UV light using a 40 W double lamp for 8 minutes in an aseptic laboratory. After 24 hours, the UV defense function of the test sample was measured by determining the viability of the cells in comparison with the negative control group, which was untreated with the culture medium or retinol and irradiated with UV light for 8 minutes.

fibroblast cells = assay: Cell proliferation potential: stem cell culture medium vs recombinant growth factor-containing media; assay type: cell-based, human; details: 5000 cells/well seeded; rFGF 50 ng, rVEGF 500 ng in normal media; stem cell medium at 100%
Protocol: Stem cells isolated from adipose tissue were cultured to passage-3 as described in Example (1-2), and then 10^6 cells of the stem cells were seeded into a T175 flask (area: 175 cm^2; volume: 500 ml) and cultured for 3 days. The culture medium was collected, and added at a concentration of 100% to a 6-well plate in which passage-4 fibroblast cells from the skin tissue of a child were dispensed at a density of 5000 cells/well. For the control group, a medium containing the same concentrations of recombinant growth factors VEGF and bFGF (Santa Cruz.) expressed in E. coli was used. Cell proliferation potential was compared between the adipose-derived stem cell culture medium and the recombinant growth factor-containing culture medium using a cell viability measurement kit.

[1] = tested on: adipose-derived stem cells
[2] = tested on: adipose-derived stem cells; assay: Growth factor secretion (ELISA) of adipose-derived stem cells under chemical stimulation with vitamins; assay type: cell-based, human; details: for optimal concentration for synthesis of growth factors: added to serum-free culture medium of adipose-derived stem cells; for TGF β-1 expression / protein levels increased / VEGF expression / protein levels increased / bFGF expression / protein levels increased: chemical stimulation only, vitamin(s) at optimal concentration in serum-free medium, more than 48 hours, compared with control group
Protocol: In order to examine whether chemical stimulation using a vitamin promotes the synthesis and secretion of growth factors, in the present invention, adipose-derived stem cells were cultured in vitro using serum media and then using serum-free media as described above.
Preferably, after vitamin is added to the culture medium, the culture is incubated for more than 48 hours. When a mixture of vitamins is used, the optimal concentrations of vitamins are the same as above.
Specifically, 1 ml of the culture medium obtained by culturing adipose-derived stem cells to passage 3 in the conditions of Example 1-2 was centrifuged at 1200 g for 5 minutes, and then filtered through a […] filter to remove cell residue. […] Then, the concentration of each of growth factors VEGF, bFGF and TGF β-1 secreted in the culture medium was measured using a sandwich ELISA kit (Quantikine Human FGF basic Immunoassay, R&D systems).
To examine the concentrations of optimally diluted growth factors, the culture medium was serially diluted at the same concentration ratio with a calibration dilution in the kit, the concentration at the absorbance included in the range of the standard curve was determined, and the values included in the range of the standard curve were plotted as data. […] of each growth factor-containing culture media and standard solutions of growth factors was placed in each well coated with an antibody to each of the growth factors (Quantikine Human FGF basic Immunoassay, R&D systems) and was cultured at room temperature for 2 hours. After completion of the antigen-antibody binding reaction, each well was washed four times with wash buffer, and […] of a solution (Quantikine Human FGF basic Immunoassay, R&D systems), containing a secondary antibody to each of the growth factors, was placed in each well, followed by culture at room temperature for 2 hours. After completion of the second antibody binding reaction, each well was washed four times with wash buffer, […] of a color-developing reagent (tetramethylbenzidine, R&D systems) was added to each well, and then the absorbance of the medium was measured at 450 nm with an ELISA reader.
Adipose tissue-derived stem cells were cultured to passage 3 as described in Example (1-2), and when the cultured cells reached a confluence of 80%, the cells were collected with trypsin/EDTA. Then, the cells were accurately dispensed into a 6-well plate at a density of 25,000 cells/well. […]
Cells were cultured in this medium.
The cells were cultured in the above medium in a 5% carbon dioxide incubator at 37° C. for more than 48 hours, and then 200 μl of the culture medium supernatant was centrifuged at 3,000 rpm and filtered through 0.22-μm filter paper. Then, the concentrations of bFGF, VEGF and TGF β-1 in the filtrate were measured by the enzyme-linked immunosorbent assay (ELISA) of Example 2.
As a control group, a normal medium, was used, which was not subjected to physical stimulation or chemical stimulation. The increase in growth factors was compared between the control group and the culture medium subjected to physical stimulation and chemical stimulation.
In a culture process, cells were added to a serum-free medium prepared by adding a Ham's F-12 nutrient mixture to DMEM not containing a pH indicator such as phenol red, at a ratio of 1:1, and adding thereto 2 mM L-glutamine, 1 mM sodium pyruvate and 0.17% sodium bicarbonate. Then, the cells were cultured in a 5% carbon dioxide incubator at 37° C. for more than 48 hours. Then, 200 μl of the culture medium supernatant was centrifuged at 3,000 rpm, and then filtered through 0.22-μm filter paper. Then, the concentrations of bFGF, VEGF and TGF β-1 were measured by the enzyme-linked immunosorbent assay (ELISA) of Example 2.
The case where physical stimulation is used in combination with chemical stimulation will now be described.
For VEGF, a medium was irradiated with UV light and then subjected to scratch stimulation. […]

Compound | Defensive effect (keratinocytes) | Defensive effect (keratinocytes; listed as retinol) | cell proliferation potential, Cells (fibroblast cells) | cytotoxicity by MTT assay ([1]; at the optimal concentrations) | optimal concentration for synthesis of growth factors [2] | TGF β-1 expression / protein levels increased [2] | VEGF expression / protein levels increased [2] | bFGF expression / protein levels increased [2] | cytotoxicity by MTT assay [1]
CC1=C(/C=C/C(C)=C/C=C/C(C)=C/CO)C(C)(C)CCC1 [Retinol] | 54% | 54% |  |  |  |  |  |  | 
rFGF: recombinant growth factor bFGF (Santa Cruz) expressed in E. coli |  |  | 8215.3 Cells |  |  |  |  |  | 
O=C1O[C@H]([C@@H](O)CO)C(O)=C1O [vitamin C] |  |  |  | no cytotoxicity occurred | 10 to 100 µM | 1.20 times | 1.68 times | 2.33 times | 
vitamin D |  |  |  |  | 5 to 10 µM | 1.16 times | 1.30 times | 2.80 times | 
Cc1cc2nc3c(=O)[nH]c(=O)nc-3n(C[C@H](O)[C@H](O)[C@H](O)CO)c2cc1C [vitamin B, riboflavin] |  |  |  |  | 50 to 100 µM | 1.56 times | 1.68 times and 1.56 times | 1.33 times | 
vitamin A |  |  |  |  | 2 to 5 µM and 2 to 10 µM | 1.20 times | 1.59 times | 1.62 times | no cytotoxicity occurred
